Measurements taken from patent US12376590B2, “Compositions comprising pyridine carboxylate herbicides and azole carboxylate safeners” (Corteva Agriscience LLC, priority 2018, dated 2025).
“And” between values parts separate entries of the source, which are not always exact repeats. Equal values may be shown once.

What was measured:
Assay in all cases: Greenhouse postemergence herbicidal safening trial, visual injury after 20-22 d
wild chamomile (MATCH) = format: in vivo, Matricaria chamomilla; settings: applied alone
Source text: (§1) Greenhouse Trial Methodology—Evaluation of Postemergence Herbicidal Safening in Crops
(§2) Seeds of the desired test plant species were planted in a 90:10% v/v (volume/volume) mixture of PRO-MIX® BX (Premier Tech Horticulture, Quakertown, PA, USA) and PROFILE® GREENS GRADE™ (Profile Products LLC, Buffalo Grove, IL, USA) planting mixture, which typically has a pH of 5.2 to 6.2 and an organic matter content of at least 50 percent, in plastic pots with a surface area of 103.2 square centimeters (cm^2). When required to ensure good germination and healthy plants, a fungicide treatment and/or other chemical or physical treatment was applied. The plants were grown for 7-36 days (d) in a greenhouse with an approximate 14-hour (h) photo-period which was maintained at about 23° C. during the day and 22° C. during the night. Nutrients and water were added on a regular basis and supplemental lighting was provided with overhead metal halide 1000-Watt lamps as necessary. The plants were employed for testing when they reached the second or third true leaf stage.
(§3) Emulsifiable concentrates of each of each pyridine carboxylate herbicide (Compound A or Compound B) were prepared at 100 grams acid equivalent per liter (g ae/L). An aliquot of each emulsifiable concentrate was placed in a 25 mL glass vial and diluted with an aqueous mixture of 1.25% (v/v) ACTIROB® B esterified rapeseed oil (Bayer Crop Science, Research Triangle Park, NC, USA) or MSO® Concentrate with LECI-TECH® methylated soybean oil (Loveland Products, Loveland, CO, USA) to obtain concentrated stock solutions at the highest application rate for each herbicide, based upon a 12 milliliter (mL) application volume at a rate of 187 liters per hectare (L/ha). The concentrated stock solutions were further diluted with an aqueous mixture of 1.25% v/v ACTIROB® B or MSO® Concentrate with LECI-TECH® to obtain stock solutions at reduced application rates for each herbicide. Spray solutions of the herbicide combinations (Compound A or Compound B plus safener) were prepared by adding weighed amounts or aliquots of the azole carboxylate safener to the stock solutions of Compound A or Compound B to form 12-mL spray solutions in two-way combinations.
(§4) The spray solutions were applied to the plant material with an overhead Mandel track sprayer equipped with 8002E nozzles calibrated to deliver 187 L/ha over an application area of 0.503 square meters (m^2) at a spray height of 18 inches (43 centimeters (cm)) above the average plant canopy. Control plants were sprayed in the same manner with the solvent blank. All herbicide (component a) application rates are given as “g ae/ha” and all safener (component b) application rates are given as “g ai/ha.”
(§5) The treated plants and control plants were placed in a greenhouse as described above and watered by sub-irrigation to prevent wash-off of the test compounds. After 20-22 d, the condition of the test plants as compared with that of the control plants was determined visually and scored on a scale of 0 to 100 percent where 0 corresponds to no injury and 100 corresponds to complete kill.

winter rape (BRSNW) = format: in vivo, Brassica napus
Source text: as §1, §2, §3, §4, §5

Russian thistle (SASKR) = format: in vivo, Salsola kali; settings: applied alone
Source text: as §1, §2, §3, §4, §5

spring barley (HORVS) = format: in vivo, Hordeum vulgare; settings: applied alone
Source text: as §1, §2, §3, §4, §5

spring wheat (TRZAS) = format: in vivo, Triticum aestivum; settings: applied alone
Source text: as §1, §2, §3, §4, §5

nutsedge (CYPES) = format: in vivo, Cyperus esculentus
Source text: as §1, §2, §3, §4, §5

barnyardgrass (ECHCG) = format: in vivo, Echinochloa crus-galli
Source text: as §1, §2, §3, §4, §5

Italian ryegrass (LOLMU) = format: in vivo, Lolium multiflorum
Source text: as §1, §2, §3, §4, §5

Canada thistle (CIRAR) = format: in vivo, Cirsium arvense
Source text: as §1, §2, §3, §4, §5

maize (ZEAMX) = format: in vivo, Zea mays
Source text: as §1, §2, §3, §4, §5

Canada horseweed (ERICA) = format: in vivo, Erigeron canadensis
Source text: as §1, §2, §3, §4, §5

[1] = tested on: common lambsquarters (CHEAL); format: in vivo, Chenopodium album L.
Source text: as §1, §2, §3, §4, §5

Johnson grass (SORHA) = format: in vivo, Sorghum halepense
Source text: as §1, §2, §3, §4, §5

[2] = tested on: Chinese sprangletop (LEFCH); format: in vivo, Leptochloa chinensis
Source text: as §1, §2, §3, §4, §5

wild buckwheat (POLCO) = format: in vivo, Polygonum convolvulus
Source text: as §1, §2, §3, §4, §5

soybean (GLXMA) = format: in vivo, Glycine max
Source text: as §1, §2, §3, §4, §5

[3] = tested on: herbicide-resistant kochia (KCHSC-R); format: in vivo, Kochia scoparia
Source text: as §1, §2, §3, §4, §5

kochia (KCHSC) = format: in vivo, Kochia scoparia
Source text: as §1, §2, §3, §4, §5

common rice (ORYSA) = format: in vivo, Oryza sativa
Source text: as §1, §2, §3, §4, §5

common sunflower (HELAN) = format: in vivo, Helianthus annuus
Source text: as §1, §2, §3, §4, §5

velvetleaf (ABUTH) = format: in vivo, Abutilon theophrasti
Source text: as §1, §2, §3, §4, §5

giant foxtail (SETFA) = format: in vivo, Setaria faberi
Source text: as §1, §2, §3, §4, §5

large crabgrass (DIGSA) = format: in vivo, Digitaria sanguinalis
Source text: as §1, §2, §3, §4, §5

pigweed (AMARE) = format: in vivo, Amaranthus retroflexus
Source text: as §1, §2, §3, §4, §5

winter wheat (TRZAW) = format: in vivo, Triticum aestivum
Source text: as §1, §2, §3, §4, §5

blackgrass (ALOMY) = format: in vivo, Alopecurus myosuroides
Source text: as §1, §2, §3, §4, §5

wild pansy (VIOTR) = format: in vivo, Viola tricolor
Source text: as §1, §2, §3, §4, §5

wild oat (AVEFA) = format: in vivo, Avena fatua
Source text: as §1, §2, §3, §4, §5

[4] = tested on: ivyleaf morningglory (IPOHE); format: in vivo, Ipomoea hederacea
Source text: as §1, §2, §3, §4, §5

With `CCOC(=O)c1nc(C(Cl)(Cl)Cl)n(-c2ccc(Cl)cc2Cl)n1` [Fenchlorazole-ethyl, fenchlorazole-ethyl] the “% visual injury Ob” value (wild chamomile (MATCH); 10 g/ha) was 0%, the “% visual injury Ob” value (wild chamomile (MATCH); 20 g/ha) was 0% and the “% visual injury Ob” value (wild chamomile (MATCH); 40 g/ha) was 0%. For the same compound, the “% visual injury Ob” value (winter rape (BRSNW); applied alone, 10 g/ha) was 0%, the “% visual injury Ob” value (winter rape (BRSNW); applied alone, 20 g/ha) was 0% and the “% visual injury Ob” value (winter rape (BRSNW); applied alone, 40 g/ha) was 0%. The “% visual injury Ob” value (Russian thistle (SASKR); 10 g/ha) was 0%, the “% visual injury Ob” value (Russian thistle (SASKR); 20 g/ha) was 0% and the “% visual injury Ob” value (Russian thistle (SASKR); 40 g/ha) was 0%. The “% visual injury Ob” value (spring barley (HORVS); 10 g/ha) was 0%, the “% visual injury Ob” value (spring barley (HORVS); 20 g/ha) was 0% and the “% visual injury Ob” value (spring barley (HORVS); 40 g/ha) was 0%. For the same compound, the “% visual injury Ob” value (spring wheat (TRZAS); 10 g/ha) was 0%, the “% visual injury Ob” value (spring wheat (TRZAS); 20 g/ha) was 0% and the “% visual injury Ob” value (spring wheat (TRZAS); 40 g/ha) was 0%.

With `N#CCOC(=O)c1nc(-c2ccc3cc[nH]c3c2F)c(F)c(N)c1Cl` [Compound A, cyanomethyl 4-amino-3-chloro-5-fluoro-6-(7-fluoro-1H-indol-6-yl)pyridine-2-carboxylate] the “% visual injury Ob” value (nutsedge (CYPES); Compound A 20 g/ha) was 30%, the “% visual injury Ob” value (nutsedge (CYPES); applied alone, 20 g/ha) was 30% and the “% visual injury Ob” value (nutsedge (CYPES); applied alone, 40 g/ha) was 73%. For the same compound, the “% visual injury Ob” value (barnyardgrass (ECHCG); Compound A 20 g/ha) was 85%, the “% visual injury Ob” value (barnyardgrass (ECHCG); applied alone, 20 g/ha) was 85% and the “% visual injury Ob” value (wild chamomile (MATCH); 20 g/ha) was 50%. For the same compound, the “% visual injury Ob” value (Italian ryegrass (LOLMU); Compound A 20 g/ha) was 5%, the “% visual injury Ob” value (Italian ryegrass (LOLMU); applied alone, 20 g/ha) was 5% and the “% visual injury Ob” value (Canada thistle (CIRAR); Compound A 20 g/ha) was 95%. The “% visual injury Ob” value (Canada thistle (CIRAR); applied alone, 20 g/ha) was 95%, the “% visual injury Ob” value (maize (ZEAMX); Compound A 20 g/ha) was 13% and the “% visual injury Ob” value (maize (ZEAMX); applied alone, 20 g/ha) was 13%. For the same compound, the “% visual injury Ob” value (maize (ZEAMX); applied alone, 40 g/ha) was 55%, the “% visual injury Ob” value (winter rape (BRSNW); Compound A 20 g/ha) was 85% and the “% visual injury Ob” value (winter rape (BRSNW); applied alone, 20 g/ha) was 95% and 85%. The “% visual injury Ob” value (Canada horseweed (ERICA); Compound A 20 g/ha) was 95%, the “% visual injury Ob” value (Canada horseweed (ERICA); applied alone, 20 g/ha) was 95% and the “% visual injury Ob” value ([1]; Compound A 20 g/ha) was 88%. The “% visual injury Ob” value ([1]; applied alone, 20 g/ha) was 88%, the “% visual injury Ob” value (Johnson grass (SORHA); Compound A 20 g/ha) was 0% and the “% visual injury Ob” value (Johnson grass (SORHA); applied alone, 20 g/ha) was 0%. For the same compound, the “% visual injury Ob” value ([2]; Compound A 20 g/ha) was 60%, the “% visual injury Ob” value ([2]; applied alone, 20 g/ha) was 60% and the “% visual injury Ob” value (wild buckwheat (POLCO); Compound A 20 g/ha) was 100%. The “% visual injury Ob” value (wild buckwheat (POLCO); applied alone, 20 g/ha) was 100%, the “% visual injury Ob” value (soybean (GLXMA); Compound A 20 g/ha) was 100% and the “% visual injury Ob” value (soybean (GLXMA); applied alone, 20 g/ha) was 100%. The “% visual injury Ob” value (Russian thistle (SASKR); 20 g/ha) was 60%, the “% visual injury Ob” value ([3]; Compound A 20 g/ha) was 90% and the “% visual injury Ob” value ([3]; applied alone, 20 g/ha) was 90%. For the same compound, the “% visual injury Ob” value (kochia (KCHSC); Compound A 20 g/ha) was 97%, the “% visual injury Ob” value (kochia (KCHSC); applied alone, 20 g/ha) was 97% and the “% visual injury Ob” value (spring barley (HORVS); 20 g/ha) was 0%. For the same compound, the “% visual injury Ob” value (spring barley (HORVS); 40 g/ha) was 17%, the “% visual injury Ob” value (common rice (ORYSA); Compound A 20 g/ha) was 10% and the “% visual injury Ob” value (common rice (ORYSA); applied alone, 20 g/ha) was 10%. The “% visual injury Ob” value (common sunflower (HELAN); Compound A 20 g/ha) was 95%, the “% visual injury Ob” value (common sunflower (HELAN); applied alone, 20 g/ha) was 95% and the “% visual injury Ob” value (common sunflower (HELAN); applied alone, 40 g/ha) was 100%. For the same compound, the “% visual injury Ob” value (velvetleaf (ABUTH); Compound A 20 g/ha) was 95%, the “% visual injury Ob” value (velvetleaf (ABUTH); applied alone, 20 g/ha) was 95% and the “% visual injury Ob” value (giant foxtail (SETFA); Compound A 20 g/ha) was 65%. The “% visual injury Ob” value (giant foxtail (SETFA); applied alone, 20 g/ha) was 65%, the “% visual injury Ob” value (large crabgrass (DIGSA); Compound A 20 g/ha) was 30% and the “% visual injury Ob” value (large crabgrass (DIGSA); applied alone, 20 g/ha) was 30%. The “% visual injury Ob” value (pigweed (AMARE); Compound A 20 g/ha) was 93%, the “% visual injury Ob” value (pigweed (AMARE); applied alone, 20 g/ha) was 93% and the “% visual injury Ob” value (pigweed (AMARE); applied alone, 40 g/ha) was 100%. For the same compound, the “% visual injury Ob” value (spring wheat (TRZAS); 20 g/ha) was 25%, the “% visual injury Ob” value (spring wheat (TRZAS); 40 g/ha) was 23% and 30% and the “% visual injury Ob” value (winter wheat (TRZAW); Compound A 20 g/ha) was 25%. For the same compound, the “% visual injury Ob” value (winter wheat (TRZAW); applied alone, 20 g/ha) was 25%, the “% visual injury Ob” value (winter wheat (TRZAW); applied alone, 40 g/ha) was 25% and the “% visual injury Ob” value (blackgrass (ALOMY); Compound A 20 g/ha) was 0%. The “% visual injury Ob” value (blackgrass (ALOMY); applied alone, 20 g/ha) was 0%, the “% visual injury Ob” value (wild pansy (VIOTR); Compound A 20 g/ha) was 30% and the “% visual injury Ob” value (wild pansy (VIOTR); applied alone, 20 g/ha) was 30%. The “% visual injury Ob” value (wild oat (AVEFA); Compound A 20 g/ha) was 0%, the “% visual injury Ob” value (wild oat (AVEFA); applied alone, 20 g/ha) was 0% and the “% visual injury Ob” value ([4]; Compound A 20 g/ha) was 0%. For the same compound, the “% visual injury Ob” value ([4]; applied alone, 20 g/ha) was 0%.
